How the values were obtained:
[1] = biological target: T1, human GABAB1 and GABAB2 receptor subunits (Homo sapiens, UniProt O75899+Q9UBS5); assay: Potentiation of GABA dose-response, FLIPR calcium assay; format: cell-based; conditions: compound at 10 μM; EC50 of GABA divided by EC50 of GABA in the presence of positive allosteric modulator
T1 construct: expressed in transfected cells; host or cells: CHO cells
Description: (§1) CHO cells expressing the human GABAB1 and GABAB2 receptor subunits co-expressing promiscuous Galpha16 proteins to force couple the receptor to the intracellular calcium signalling pathway were used to study GABAB pharmacology in vitro. The cells were maintained at 37° C. in a 5% CO2 95% air atmosphere in HAM F-12 medium supplemented with 10% foetal bovine serum and selection antibiotics.
(§2) The day before the experiment the cells were detached and plated into black-walled clear bottom 384-well plates at a cell density of 20 000 cells per well. The growth medium was removed and the cells were incubated with FLIPR Calcium 5 Assay reagent (Molecular Devices, CA, USA) diluted 1:1 in Probenecid-Ringer for 1 h at 37° C. in dark. Probenecid-Ringer buffer consisted of 150 mM NaCl, 3 mM KCl, 1.2 mM MgCl2, 1 mM CaCl2, 5 mM glucose, 20 mM 2-(4-(2-hydroxyethyl)piperazin-1-yl)ethanesulfonic acid (HEPES), and 2.5 mM Probenecid (pH 7.4 adjusted with 1.0 M NaOH and osmolarity adjusted to […]). Compounds were dissolved in Probenecid-Ringer. […] The samples were excited at 470-495 nm and emission was detected at 515-575 nm. All experiments were performed at 37° C.
(§3) Baseline fluorescence minimum was subtracted from maximum for the calculation of agonism and positive allosteric modulator pharmacology. Both in the agonism mode and in the allosteric mode, the efficacy was related to the intrinsic activity (IA) of the endogenous agonist GABA at 30 μM (positive allosteric modulator efficacy at 10 μM/GABA efficacy or agonism efficacy at 30 μM/GABA efficacy). To determine potentiation of GABA dose-response, the compounds, at a concentration of 10 μM diluted in Probenecid-Ringer, were added by FLIPR tetra followed by addition of GABA (diluted in water in the concentration range 0.123-10 μM). The EC50 values were determined using a four-parameter logistic fit (model 205 in ActivityBase XE). The EC50 value of GABA was divided with the EC50 value of GABA in the presence of positive allosteric modulator to determine potentiation of GABA dose-response EC50 value.

[2] = biological target: T1, human GABAB1 and GABAB2 receptor subunits; assay: Agonism and positive allosteric modulator pharmacology in vitro, two-addition FLIPR calcium assay; format: cell-based; conditions: CHO cells co-expressing Galpha16; for IA (GABAB agonism): agonism efficacy at 30 μM / GABA efficacy at 30 μM; for IA (GABAB positive allosteric modulation): positive allosteric modulator efficacy at 10 μM (with EC10.5 GABA) / GABA efficacy at 30 μM
Description: as §1, §2
A two-addition protocol was used to determine agonism and positive allosteric modulator pharmacology in the same assay using a kinetic read out. Agonism pharmacology of compounds was studied in the first addition in the concentration range 0.123-30 μM in quadruplicate at each concentration. In the second addition, a low (EC10.5) concentration of GABA was applied to detect the positive allosteric modulator pharmacology of the compounds to be studied. The EC10.5 concentration was determined from the GABA EC50 value using the formula ECF≈(F/(100-F))^1/H·EC50, wherein F is the fraction of full response and H is Hill slope.
as §3

T1 sequence (Q9UBS5 15-961 limits assumed): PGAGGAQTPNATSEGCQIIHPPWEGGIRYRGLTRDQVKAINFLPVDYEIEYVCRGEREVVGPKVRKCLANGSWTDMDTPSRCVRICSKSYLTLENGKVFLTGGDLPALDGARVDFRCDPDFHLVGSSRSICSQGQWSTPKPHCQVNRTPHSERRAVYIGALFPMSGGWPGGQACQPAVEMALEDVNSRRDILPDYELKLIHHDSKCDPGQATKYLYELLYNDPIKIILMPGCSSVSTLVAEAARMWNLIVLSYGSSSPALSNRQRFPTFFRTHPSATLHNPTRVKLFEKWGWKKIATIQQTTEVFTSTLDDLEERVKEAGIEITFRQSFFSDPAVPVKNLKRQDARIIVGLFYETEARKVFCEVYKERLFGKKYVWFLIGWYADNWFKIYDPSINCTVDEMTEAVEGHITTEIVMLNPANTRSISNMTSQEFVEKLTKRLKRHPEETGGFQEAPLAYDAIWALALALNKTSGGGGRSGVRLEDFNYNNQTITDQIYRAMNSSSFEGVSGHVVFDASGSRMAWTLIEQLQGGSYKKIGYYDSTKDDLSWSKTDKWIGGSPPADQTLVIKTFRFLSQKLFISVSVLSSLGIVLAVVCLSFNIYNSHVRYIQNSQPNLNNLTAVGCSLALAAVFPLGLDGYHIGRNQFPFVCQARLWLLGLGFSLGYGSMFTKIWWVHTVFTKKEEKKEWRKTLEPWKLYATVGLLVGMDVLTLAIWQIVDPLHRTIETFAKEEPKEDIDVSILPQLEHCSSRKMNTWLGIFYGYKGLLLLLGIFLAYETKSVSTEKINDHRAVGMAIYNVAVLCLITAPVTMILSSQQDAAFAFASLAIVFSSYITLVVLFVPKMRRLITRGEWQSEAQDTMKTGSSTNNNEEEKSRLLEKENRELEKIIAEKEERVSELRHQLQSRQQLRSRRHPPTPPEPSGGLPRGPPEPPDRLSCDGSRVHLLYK
T1 sequence (O75899 42-941): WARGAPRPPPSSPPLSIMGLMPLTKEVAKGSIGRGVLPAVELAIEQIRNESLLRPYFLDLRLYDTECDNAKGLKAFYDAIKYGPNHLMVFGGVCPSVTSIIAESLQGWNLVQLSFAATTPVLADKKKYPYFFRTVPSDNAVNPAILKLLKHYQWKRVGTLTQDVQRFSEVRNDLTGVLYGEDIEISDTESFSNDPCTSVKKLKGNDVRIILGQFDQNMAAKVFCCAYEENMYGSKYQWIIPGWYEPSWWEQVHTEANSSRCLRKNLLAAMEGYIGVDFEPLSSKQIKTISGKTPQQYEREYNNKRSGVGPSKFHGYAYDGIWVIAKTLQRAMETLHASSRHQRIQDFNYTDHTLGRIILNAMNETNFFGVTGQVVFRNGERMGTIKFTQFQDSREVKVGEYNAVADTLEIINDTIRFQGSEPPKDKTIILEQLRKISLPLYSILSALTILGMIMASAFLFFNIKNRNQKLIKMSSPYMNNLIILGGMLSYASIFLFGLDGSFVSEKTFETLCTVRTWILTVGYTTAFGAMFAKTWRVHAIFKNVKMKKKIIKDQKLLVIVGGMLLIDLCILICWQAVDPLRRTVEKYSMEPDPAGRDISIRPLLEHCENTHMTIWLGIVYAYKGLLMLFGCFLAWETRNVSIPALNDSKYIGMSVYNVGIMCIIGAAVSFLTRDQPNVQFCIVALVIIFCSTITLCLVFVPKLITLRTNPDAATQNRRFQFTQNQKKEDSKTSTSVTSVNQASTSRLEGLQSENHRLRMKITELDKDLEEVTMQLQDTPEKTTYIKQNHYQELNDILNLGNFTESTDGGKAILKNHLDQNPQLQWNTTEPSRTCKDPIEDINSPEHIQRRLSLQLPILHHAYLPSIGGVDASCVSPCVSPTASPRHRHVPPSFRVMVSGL

Row | SMILES | Potentiation of GABA (fold) [1] [fold] | IA (GABAB agonism) [2] | IA (GABAB positive allosteric modulation) [2]
1 | COc1c(F)cc2c(=O)n(Cc3ccc(Br)cc3)c(=O)n3c2c1OC(C)(C)C3 [Example 84, 6-(4-Bromobenzyl)-9-fluoro-10-methoxy-2,2-dimethyl-2H-[1,4]oxazino[2,3,4-ij]quinazoline-5,7(3H,6H)-dione] | 33.4 | 0.10 | 0.86
2 | C[C@H](c1ccc(Cl)cc1)n1c(=O)c2ccc(Cl)cc2n(CC(C)(C)O)c1=O [Example 117, (R)-7-Chloro-3-(1-(4-chlorophenyl)ethyl)-1-(2-hydroxy-2-methylpropyl)quinazoline-2,4(1H,3H)-dione] | 19.8 | 0.09 | 0.51
3 | CC(C)(O)Cn1c(=O)n(Cc2ccc(Cl)c(Cl)c2)c(=O)c2ccc(C(F)(F)F)cc21 [Example 2, 3-(3,4-Dichlorobenzyl)-1-(2-hydroxy-2-methylpropyl)-7-(trifluoromethyl)quinazoline-2,4(1H,3H)-dione] | 11 | 0.14 | 0.65
4 | CC(C(N)=O)n1c(=O)n(Cc2ccc(Br)cc2)c(=O)c2ccc(F)cc21 (stereo not drawn) [Example 37, 2-(3-(4-Bromobenzyl)-7-fluoro-2,4-dioxo-3,4-dihydroquinazolin-1(2H)-yl)propanamide] | 1.9 | 0.21 | 0.39
5 | CC1(C)Cn2c(=O)n(Cc3ccc(Cl)cc3)c(=O)c3ccc(Cl)c(c32)O1 [Example 67, 10-Chloro-6-(4-chlorobenzyl)-2,2-dimethyl-2H-[1,4]oxazino[2,3,4-ij]quinazoline-5,7(3H,6H)-dione] | 9.5 | 0.02 | 0.71
6 | CC(C)(O)Cn1c(=O)n(Cc2ccc(Cl)c(Oc3ccccc3)c2)c(=O)c2ccc(F)cc21 [Example 41, 3-(4-Chloro-3-phenoxybenzyl)-7-fluoro-1-(2-hydroxy-2-methylpropyl)quinazoline-2,4(1H,3H)-dione] | 2.8 | 0.10 | 0.47
7 | CC(C)(O)Cn1c(=O)n(Cc2ccc(Br)cc2)c(=O)c2cc(F)c(Cl)cc21 [Example 49, 3-(4-Bromobenzyl)-7-chloro-6-fluoro-1-(2-hydroxy-2-methylpropyl)quinazoline-2,4(1H,3H)-dione] | 31 | 0.28 | 0.61
8 | C[C@@H](O)Cn1c(=O)n(Cc2ccc(Cl)cc2)c(=O)c2ccc(Cl)c(F)c21 [Example 82, (R)-7-Chloro-3-(4-chlorobenzyl)-8-fluoro-1-(2-hydroxypropyl)quinazoline-2,4(1H,3H)-dione] | 24.5 | 0.18 | 0.71
9 | Cn1c(=O)n(C2(c3ccc(Cl)cc3)CC2)c(=O)c2ccc(F)cc21 [Example 43, 3-(1-(4-Chlorophenyl)cyclopropyl)-7-fluoro-1-methylquinazoline-2,4(1H,3H)-dione] | 3.8 | 0.17 | 0.51
10 | Cn1c(=O)n(Cc2ccc(Br)cc2)c(=O)c2ccc(Cl)cc21 [Example 18, 3-(4-Bromobenzyl)-7-chloro-1-methylquinazoline-2,4(1H,3H)-dione] | 1.6 | 0.06 | 0.43
11 | CC1(Cn2c(=O)n(Cc3ccc(Br)cc3)c(=O)c3cc(F)c(Cl)cc32)COC1 [Example 50, 3-(4-Bromobenzyl)-7-chloro-6-fluoro-1-((3-methyloxetan-3-yl)methyl)quinazoline-2,4(1H,3H)-dione] | 22 | 0.04 | 0.73
12 | CC(C)n1c(=O)n(Cc2ccc(Br)cc2)c(=O)c2ccc(F)cc21 [Example 38, 3-(4-Bromobenzyl)-7-fluoro-1-isopropylquinazoline-2,4(1H,3H)-dione] | 3.5 | 0.13 | 0.21
13 | C[C@H](c1ccc(Cl)cc1)n1c(=O)c2ccc(F)cc2n(C)c1=O [Example 42, (R)-3-(1-(4-Chlorophenyl)ethyl)-7-fluoro-1-methylquinazoline-2,4(1H,3H)-dione] | 7.3 | 0.18 | 0.37
14 | CC(C)(O)Cn1c(=O)n(Cc2ccc(Br)cc2)c(=O)c2cc(F)c(F)c(F)c21 [Example 60, 3-(4-Bromobenzyl)-6,7,8-trifluoro-1-(2-hydroxy-2-methylpropyl)quinazoline-2,4(1H,3H)-dione] | 89 | 0.20 | 0.85
15 | Cn1c(=O)n(Cc2ccc(Br)cc2)c(=O)c2ccc(F)cc21 [Example 33, 3-(4-Bromobenzyl)-7-fluoro-1-methylquinazoline-2,4(1H,3H)-dione] | 4.8 | 0.23 | 0.45
16 | CC1(C)Cn2c(=O)n(Cc3ccc(Br)cc3)c(=O)c3cc(F)c(F)c(c32)O1 [Example 66, 6-(4-Bromobenzyl)-9,10-difluoro-2,2-dimethyl-2H-[1,4]oxazino[2,3,4-ij]quinazoline-5,7(3H,6H)-dione] | 12.7 | 0.04 | 0.77
17 | Cn1c(=O)n(Cc2ccc([N+](=O)[O-])cc2)c(=O)c2ccc(F)cc21 [Example 40, 7-Fluoro-1-methyl-3-(4-nitrobenzyl)quinazoline-2,4(1H,3H)-dione] | 1.5 | 0.04 | 0.26
18 | CC(C)(O)Cn1c(=O)n(Cc2ccc(Br)cc2)c(=O)c2ccc(Cl)c(F)c21 [Example 123, 3-(4-Bromobenzyl)-7-chloro-8-fluoro-1-(2-hydroxy-2-methylpropyl)quinazoline-2,4(1H,3H)-dione] | 60.4 | 0.13 | 0.71
19 | CC(C)(O)Cn1c(=O)n(Cc2ccc(Br)cc2)c(=O)c2ccc(F)cc21 [Example 39, 3-(4-Bromobenzyl)-7-fluoro-1-(2-hydroxy-2-methylpropyl)quinazoline-2,4(1H,3H)-dione] | 23.1 | 0.30 | 0.85
20 | CCn1c(=O)n(Cc2ccc(Br)cc2)c(=O)c2ccc(F)cc21 [Example 87, 3-(4-Bromobenzyl)-1-ethyl-7-fluoroquinazoline-2,4(1H,3H)-dione] | 3.3 | 0.11 | 0.44
21 | CC(C)(C)C(=O)Cn1c(=O)n(Cc2ccc(Br)cc2)c(=O)c2ccc(F)cc21 [Example 26, 3-(4-Bromobenzyl)-1-(3,3-dimethyl-2-oxobutyl)-7-fluoroquinazoline-2,4(1H,3H)-dione] | 1.7 | 0.08 | 0.48
22 | Cn1c(=O)n(C2CCCc3ccccc32)c(=O)c2ccc(C(F)(F)F)cc21 (stereo not drawn) [Example 12, 1-Methyl-3-(1,2,3,4-tetrahydronaphthalen-1-yl)-7-(trifluoromethyl)quinazoline-2,4(1H,3H)-dione] | 25.8 | 0.20 | 0.67
23 | CC(C)(O)Cn1c(=O)n(Cc2ccc(Cl)cc2)c(=O)c2cc(Cl)cc(F)c21 [Example 131, 6-Chloro-3-(4-chlorobenzyl)-8-fluoro-1-(2-hydroxy-2-methylpropyl)quinazoline-2,4(1H,3H)-dione] | 42.6 | 0.19 | 0.89

Reference: US20170137387A1, “PHARMACOLOGICALLY ACTIVE QUINAZOLINEDIONE DERIVATIVES” (ORION CORPORATION, priority 2014, published 2017)
